Read-outs that look alike come from different tables or passages of the source.
Key:
[1] = system: N. gonorrhoeae plasmid DNA; conditions: for Average MOTA Value: 60 min room temperature after DNA spike
Protocol: Twenty-milliliter volumes of negative pooled urine were prepared with 10, 40, and 100 mM sodium citrate (final concentration); 10, 20, and 40 mM EDTA (final concentration); and without chemical additive. In addition, a 20-ml volume of negative pooled urine was heated for 30 minutes (heated-treated urine). The samples were incubated for 60 minutes at room temperature. After the incubation step, the samples were spiked with N. gonorrhoeae plasmid DNA (2500 DNA copies/ml). The samples were incubated for 60 minutes at room temperature. After the incubation step, two-ml volumes from each sample (eight replicates) were heated for 30 minutes at 114° C. to denature the DNA.
A 1-ml volume of the 8 replicates as described above was added to ferrosoferric oxide. A 100-ul volume of 6 M glycine HCl was added to each sample. The DNA-ferrosoferric oxide complexes were separated on a magnet and washed two times with a 900-ul volume of 1 mM glycine HCl to reduce the ionic strength and remove nonspecifically bound materials. The DNA was released from the ferrosoferric oxide with 480-ul volume of elution buffer (88.3 mM KOH, 177.8 mM bicine, 12.1% (v/v) glycerol, and 11.0% (v/v) DMSO [final concentration]).
Strand Displacement Amplification (SDA) was performed according to the manufacturer's instructions (BDProbeTec™ET Chlamydia trachomatis and N. gonorrhoeae Amplified DNA Assay Package Insert L-000203 [November 1999]). A 150-ul volume of each sample was added into a priming microwell. The priming microwell plate was incubated for 20 minutes at room temperature, after which the plate was incubated at 72.5° C. The amplification microwell plate was incubated at 54° C. After 10 minutes, a 100-ul volume from each priming microwell was added into the corresponding amplification microwell. The amplification microwell plate was place in a BD ProbeTec ET instrument. Data was reported as MOTA value (metric other than acceleration).

[2] = system: intact cells of N. gonorrhoeae; type: cell-based, N. gonorrhoeae ATCC 19424; conditions: for Average MOTA Value: urine; for average MOTA values for day 0 versus day 6: 100 mM sodium citrate, sodium fluoride, sodium borate, 5 mM EDTA, urine at 5, 25, 35, and 45° C.
Protocol: (§1) The samples were spiked with cells of N. gonorrhoeae a final concentration 2500 cells/ml. Each sample was incubated for 14 days at room temperature. At specific time points (day 0, 6, and 14), 2.0-ml volumes of each sample (eight replicates) was centrifuged at 2000×g for 30 minutes at room temperature. The supernate was decanted and the cell pellet was resuspended with a 2.0-ml volume of BSA/PBS, and then centrifuged at 2000×g for 30 minutes at room temperature. Again, the supernatant was decanted and the cell pellet was resuspended with a 2.0-ml volume of CT/GC diluent. […] SDA was performed on the cell lysate as described in Example 1.
The samples were spiked with cells of N. gonorrhoeae at a final concentration of 2500 cells/ml. Each sample was incubated for 6 days at 5, 25, 35, and 45° C. At specific time points (day 0 and 6), the samples were processed by centrifugation at 2000×g as described in Example 2. […] SDA was performed on the cell lysates as described in Example 1.

[3] = system: intact cells of N. gonorrhoeae; type: cell-based, N. gonorrhoeae ATCC 19424; conditions: for Average MOTA Value: 10 mM potassium EDTA, urine
Protocol: as §1
(§2) i) Potassium EDTA: Seventy-milliliter volumes of pooled negative urine were prepared with 10 mM potassium EDTA (final concentration). The samples were spiked with cells of N. gonorrhoeae at a final concentration of 2000 cells/ml. Each sample was incubated for 14 days at 5, 25, 33, 45, and 60° C. At specific time points (day 0, 6 and 14), the samples were processed by centrifugation at 2000×g as described in Example 3. […] SDA was performed on the cell lysates as described in Example 1.
as §2, with “ii) DNA/RNA Protect™:” for “i) Potassium EDTA:”, “10% (v/v) DNA/RNA Protect™” for “10 mM potassium EDTA”

[4] = system: N. gonorrhoeae plasmid DNA; experiment: Stability of N. gonorrhoeae plasmid DNA in urine, 3 days at room temperature (SDA, MOTA value); type: biochemical, Neisseria gonorrhoeae
Protocol: The samples were incubated for 3 days at room temperature. […] SDA was performed on the isolated DNA as described in Example 1.

[5] = system: intact cells of N. gonorrhoeae; type: cell-based, N. gonorrhoeae ATCC 19424; conditions: urine, room temperature; for average amplification MOTA values at day 0 versus day 6: 100 mM sodium citrate, sodium fluoride, sodium borate, 5 mM EDTA
Protocol: as §1
Forty-milliliter volumes of negative urine was prepared with 100 mM sodium citrate (final concentration); 5, 10, and 15% (v/v) sucrose (final concentration); 5, 10, and 15% (v/v) PVP (final concentration); 5, 10, and 15 mM magnesium chloride (final concentration); 10 and 100 mM sodium fluoride (final concentration); 10 and 100 mM sodium formate (final concentration); 10 and 100 mM sodium borate (final concentration); 0.5 and 5 mM EDTA (final concentration); 0.5 and 5 mM EGTA (final concentration); and without chemical additive. The samples were spiked with cells of N. gonorrhoeae at a final concentration of 2500 cells/ml. Each sample was incubated for 6 days at room temperature. At specific time points (day 0 and 6), the samples were processed by centrifugation at 2000×g as described in Example 2. […] SDA was performed on the cell lysate as described in Example 1.

`O=C(O)CN(CCN(CC(=O)O)CC(=O)O)CC(=O)O` [EDTA, Ethylenediaminetetraacetic acid] was tested, and the “Average MOTA Value” ([1]; 10 mM additive in human urine) was 16103, the “Average MOTA Value” ([1]; 20 mM additive in human urine) was 16178 and the “Average MOTA Value” ([1]; 40 mM additive in human urine) was 20007. The “protection of N. gonorrhoeae plasmid DNA from degradation in human urine by endogenous nucleases” value ([1]; sodium citrate at 10, 20, and 40 mM, EDTA at 10, 40, 100 mM (so in the source)) was “protected N. gonorrhoeae plasmid DNA from degradation”, the “Average MOTA Value” ([2]; 5 mM, 5° C., Day 0) was 50132 and the “Average MOTA Value” ([2]; 5 mM, 5° C., Day 6) was 64610. The “Average MOTA Value” ([2]; 5 mM, 25° C., Day 0) was 54871, the “Average MOTA Value” ([2]; 5 mM, 25° C., Day 6) was 66009 and the “Average MOTA Value” ([2]; 5 mM, 35° C., Day 0) was 57077. For the same compound, the “Average MOTA Value” ([2]; 5 mM, 35° C., Day 6) was 69291, the “Average MOTA Value” ([2]; 5 mM, 45° C., Day 0) was 62891 and the “Average MOTA Value” ([2]; 5 mM, 45° C., Day 6) was 74667. The “average MOTA values for day 0 versus day 6” value [2] was “no significant difference”, the “time for which stability of intact cells of N. gonorrhoeae in human urine was maintained” value ([3]; 10 mM EDTA, 5, 27, 33, 45, and 60° C.) was ≥ 14 days and the “Average MOTA Value” ([3]; 5° C., Day 0) was 26448. For the same compound, the “Average MOTA Value” ([3]; 5° C., Day 6) was 35234, the “Average MOTA Value” ([3]; 5° C., Day 14) was 36205 and the “Average MOTA Value” ([3]; 27° C., Day 0) was 26448. The “Average MOTA Value” ([3]; 27° C., Day 6) was 31619, the “Average MOTA Value” ([3]; 27° C., Day 14) was 36994 and the “Average MOTA Value” ([3]; 33° C., Day 0) was 26448. For the same compound, the “Average MOTA Value” ([3]; 33° C., Day 6) was 34252, the “Average MOTA Value” ([3]; 33° C., Day 14) was 38183 and the “Average MOTA Value” ([3]; 45° C., Day 0) was 26448. For the same compound, the “Average MOTA Value” ([3]; 45° C., Day 6) was 36132, the “Average MOTA Value” ([3]; 45° C., Day 14) was 41115 and the “Average MOTA Value” ([3]; 60° C., Day 0) was 26448. For the same compound, the “Average MOTA Value” ([3]; 60° C., Day 6) was 32218, the “Average MOTA Value” ([3]; 60° C., Day 14) was 26259 and the “Average MOTA Value” ([4]; 10 mM, Day 0) was 32177. The “Average MOTA Value” ([4]; 10 mM, Day 3) was 30445, the “Average MOTA Value” ([4]; 20 mM, Day 0) was 34594 and the “Average MOTA Value” ([4]; 20 mM, Day 3) was 31366. The “Average MOTA Value” ([5]; 0.5 mM, Day 0) was 35950, the “Average MOTA Value” ([5]; 0.5 mM, Day 6) was 650 and the “Average MOTA Value” ([5]; 5 mM, Day 0) was 32392. For the same compound, the “Average MOTA Value” ([5]; 5 mM, Day 6) was 34445 and the “average amplification MOTA values at day 0 versus day 6” value [5] was “not significantly different”.
With `O=C(O)CN(CCOCCOCCN(CC(=O)O)CC(=O)O)CC(=O)O` [EGTA, Ethylenebis(oxyethylenenitrilo) tetraacetic acid] the “Average MOTA Value” ([5]; 0.5 mM, Day 0) was 32611, the “Average MOTA Value” ([5]; 0.5 mM, Day 6) was 1150 and the “Average MOTA Value” ([5]; 5 mM, Day 0) was 34504. For the same compound, the “Average MOTA Value” ([5]; 5 mM, Day 6) was 6931.
In the case of `[Cl-].[Cl-].[Mg+2]` [MgCl^2, Magnesium chloride], the “Average MOTA Value” ([5]; 5 mM, Day 0) was 28072, the “Average MOTA Value” ([5]; 5 mM, Day 6) was 1507 and the “Average MOTA Value” ([5]; 10 mM, Day 0) was 27157. For the same compound, the “Average MOTA Value” ([5]; 10 mM, Day 6) was 4547, the “Average MOTA Value” ([5]; 15 mM, Day 0) was 35926 and the “Average MOTA Value” ([5]; 15 mM, Day 6) was 4868.
`O.O.O.O.O.O.O.O.O.O.[Na+].[Na+].[O-]B1OB2OB([O-])OB(O1)O2` [sodium borate, Sodium borate] was tested, and the “average MOTA values for day 0 versus day 6” value [2] was “no significant difference”, the “Average MOTA Value” ([2]; 100 mM, 5° C., Day 0) was 41940 and the “Average MOTA Value” ([2]; 100 mM, 5° C., Day 6) was 40325. The “Average MOTA Value” ([2]; 100 mM, 25° C., Day 0) was 49622, the “Average MOTA Value” ([2]; 100 mM, 25° C., Day 6) was 50745 and the “Average MOTA Value” ([2]; 100 mM, 35° C., Day 0) was 60308. The “Average MOTA Value” ([2]; 100 mM, 35° C., Day 6) was 60296, the “Average MOTA Value” ([2]; 100 mM, 45° C., Day 0) was 63343 and the “Average MOTA Value” ([2]; 100 mM, 45° C., Day 6) was 62283. The “Average MOTA Value” ([4]; 100 mM, Day 0) was 23263, the “Average MOTA Value” ([4]; 100 mM, Day 3) was 34089 and the “Average MOTA Value” ([5]; 10 mM, Day 0) was 26170. The “Average MOTA Value” ([5]; 10 mM, Day 6) was 15464, the “average amplification MOTA values at day 0 versus day 6” value [5] was “not significantly different” and the “Average MOTA Value” ([5]; 100 mM, Day 0) was 24607. The “Average MOTA Value” ([5]; 100 mM, Day 6) was 28908.

— patent US7029840B2 (priority 2000, dated 2006)
